Like-named read-outs stand apart in the source and are kept apart here.
Key:
[1] = test system: other human prostanoid receptor subtypes; conditions: cited from earlier work
[2] = test system: mechanical hyperalgesia induced by carrageenan model; conditions: cited from earlier work
[3] = 28-day safety and toxicokinetic study in cats (Example 14); assay type: in vivo, cat; conditions: for half-life: both sexes, domestic shorthair, cat, serum, oral, 15 mg/kg
Experimental: The objective of this study was to evaluate the feline safety and toxicokinetic profiles of grapiprant. Twenty-four domestic shorthair cats were randomly assigned to receive placebo or 3, 9, or 15 mg/kg grapiprant in a capsule formulation (3 males and 3 females per group) once daily for 28 days. All cats received their assigned medications as per protocol. Food consumption and behavior were observed daily, bodyweight measured weekly, and clinical pathology analyses on blood run on Days −7, 14, and 25, and urinalysis run on Days −7, and 25. Serial blood samples for toxicokinetic analyses were obtained following the Day 0 and Day 27 doses. Full necropsies and histopathological evaluations were performed following humane euthanasia on Day 28.

[4] = test system: cat serum proteins; experiment: Binding to cat serum proteins by equilibrium dialysis (Example 11); conditions: equilibrium dialysis (RED device)
Experimental: Grapiprant concentrations of 200 and 1000 ng/mL in cat serum were subjected to equilibrium dialysis using a Rapid Equilibrium Dialysis (RED) device.

[5] = test system: dogs with naturally occurring osteoarthritis; experiment: Dose ranging field study in osteoarthritic dogs, CBPI (Example 6); assay type: in vivo, dog; conditions: for median decrease from baseline PSS score: placebo 28; for median decrease from baseline PIS score: placebo 39.13; for Pain Interference Score (PIS), % change from Day 0 / Pain Severity Score (PSS), % change from Day 0: Formulation A34 tablets
Experimental: In a masked, multi-centered dose ranging field study, dogs with naturally occurring osteoarthritis were treated with grapiprant at 2 mg/kg once daily (SID), 5 mg/kg once daily, 4 mg/kg twice daily (BID), or placebo twice daily to assess the control of pain and inflammation. Dogs were randomly assigned to one of the four treatment groups and treated orally with Formulation A34 tablets of 20, 60, and 100 mg, or placebo tablets (matched to the 4 mg/kg group). (See above at Example 2, Table 4). The control of pain and inflammation was assessed by the owner using the validated Canine Brief Pain Inventory (CBPI) assessment tool, which consists of a pain severity score (PSS), a Pain Interference Score (PIS), and an Owner Impression of dog's quality of life. CBPI scoring, as well as a veterinarian assessment of osteoarthritis, were conducted at Study Day 0 (baseline) and Days 7, 14, 21, and 28.
In total 476 dogs were screened in the study with 108 screen failures, resulting in […] in the per protocol population.

[6] = test system: complete Freund's adjuvant-induced chronic inflammatory pain response; conditions: cited from earlier work
[7] = test system: thermal hyperalgesia induced by intraplantar injection of PGE2; conditions: oral administration; cited from earlier work
[8] = test system: meniscal release model of osteoarthritis; experiment: Meniscal release model of osteoarthritis in dogs (Example 8); assay type: in vivo
Experimental: Twenty intact adult female hounds underwent surgical meniscal release of the right stifle and were maintained for at least 8 weeks to allow osteoarthritis to develop. […] Animals were randomized into three groups: negative control (n=6), positive control (n=7) treated with 5 mg/kg firocoxib daily, and grapiprant (n=7) dosed once daily at 30 mg/kg. Dosing was based on baseline bodyweight.
Baseline physical exams, bodyweights, hematology, serum chemistry and urinalysis were obtained on study Day −1 and repeated on Day 13. Orthopedic assessments were conducted on Day −1, Day 2, Day 6, and Day 13, including a kinetics assessment using the GAITRite system to determine left hindlimb: right hindlimb ratios for peak pressure, stride length, step length, and stance time, a 5-point scale lameness evaluation, VAS assessments of right hindlimb function, right stifle pain and effusion, and comfortable range of motion measurements of both stifles using a goniometer.

[9] = Pharmacokinetics in cats FPK-13-004 (Example 13); assay type: in vivo, cat; conditions: for AUC(0-t) / Cmax / Tmax / half-life / Cmax/Dose: cats
Experimental: This controlled, non-GLP, laboratory study used three treatment groups: Group 1 was dosed with grapiprant at 2.5 mg/animal; Group 2 was dosed with grapiprant at 5 mg/animal; and Group 3 was dosed with grapiprant at 10 mg/animal. Each dose was administered once on Day 0. Blood samples were collected and processed to serum for pharmacokinetic (PK) analysis. Four hours post-dose, all cats were offered food. Following PK sample collections on Day 1, all animals were released to an open feline colony.
Pharmacokinetic parameters were similar between males and females within each dose group, and therefore mean values were determined by combining data from all animals.

[10] = 9-month oral toxicity study in dogs with 4-week recovery (Example 7)
Experimental: Four animals per sex were used in each dose group and two additional animals per sex in the 50 mg/kg dose group for recovery purposes. Clinical signs and food consumption were assessed daily. Bodyweight was recorded weekly. Ophthalmologic examination was performed on Weeks 20 and 38 of the dosing phase and Week 4 of the recovery phase. Electrocardiograms were recorded on Weeks 13, 26, and 38 of the dosing phase and Week 4 of the recovery phase. Hematology, coagulation, and serum chemistry parameters were monitored on Weeks 13, 26, and 39 of the dosing phase and Week 4 or 5 of the recovery phase. Urinalyses were performed on Week 37 of the dosing phase and Week 3 or 4 of the recovery phase. […] At the end of the dosing or recovery period, dogs were euthanized and necropsied. After gross examination, selected organs were weighed, and a comprehensive set of tissues was collected and processed for microscopic examination.

[11] = single dose 5 mg (1 mg/kg), mean of all animals
[12] = for a 4-fold increase in dose from 0.5 to 2 mg/kg

## CCc1nc2c(C)nc(C)cc2n1-c1ccc(CCNC(=O)NS(=O)(=O)c2ccc(C)cc2)cc1 [grapiprant, N-{2-[4-(2-ethyl-4,6-dimethyl-1H-imidazo[4,5-c]pyridin-1-yl)phenyl]ethyl}-N′-[(4-methylphenyl)sulfonyl]urea]
[1]
  selectivity for EP4 over other human prostanoid receptor subtypes: highly selective for the EP4 receptor over other human prostanoid receptor subtypes
[2]
  effect on mechanical hyperalgesia: significantly reduces mechanical hyperalgesia
[3]; capsule 3, 9, or 15 mg/kg once daily, Day 27, read-out: Mean half-lives
  half-life: 3 to 14 h
[3]; capsule 3, 9, or 15 mg/kg once daily, Day 27, read-out: half-life, median value
  half-life: 5 to 6 h
[3]; capsule 3, 9, or 15 mg/kg once daily for 28 days
  tolerability and adverse effects: well tolerated, and no adverse effects were noted at daily doses up to 15 mg/kg for 28 days
[3]; capsule 3, 9, or 15 mg/kg once daily, Day 27
  time after administration at which maximum serum concentrations were reached: 1 to 4 h
[4]; 200 ng/mL
  percent bound: 95%
[4]; 1000 ng/mL
  percent bound: 92%
[5]; 2 mg/kg SID and 5 mg/kg SID doses
  control of pain and inflammation of osteoarthritis (PSS and PIS of the CBPI): equally effective in controlling the pain and inflammation of osteoarthritis in dogs
[5]; 2 mg/kg SID
  median decrease from baseline PSS score: 48
  median decrease from baseline PIS score: 53.25
[5]; 4 mg/kg BID
  median decrease from baseline PSS score: 44.44
  median decrease from baseline PIS score: 52.27
[5]; 5 mg/kg SID
  median decrease from baseline PSS score: 48.53
  median decrease from baseline PIS score: 55.27
[5]; 2 mg/kg SID, Day 7, median
  Pain Interference Score (PIS), % change from Day 0: −27.97%
  Pain Severity Score (PSS), % change from Day 0: −24.26%
[5]; 2 mg/kg SID, Day 14, median
  Pain Interference Score (PIS), % change from Day 0: −33.33%
  Pain Severity Score (PSS), % change from Day 0: −32.00%
[5]; 2 mg/kg SID, Day 21, median
  Pain Interference Score (PIS), % change from Day 0: −47.83%
  Pain Severity Score (PSS), % change from Day 0: −35.00%
[5]; 2 mg/kg SID, Day 28, median
  Pain Interference Score (PIS), % change from Day 0: −53.25%
  Pain Severity Score (PSS), % change from Day 0: −48.00%
[5]; 4 mg/kg BID, Day 7, median
  Pain Interference Score (PIS), % change from Day 0: −28.57%
  Pain Severity Score (PSS), % change from Day 0: −17.39%
[5]; 4 mg/kg BID, Day 14, median
  Pain Interference Score (PIS), % change from Day 0: −35.24%
  Pain Severity Score (PSS), % change from Day 0: −28.29%
[5]; 4 mg/kg BID, Day 21, median
  Pain Interference Score (PIS), % change from Day 0: −42.11%
  Pain Severity Score (PSS), % change from Day 0: −38.89%
[5]; 4 mg/kg BID, Day 28, median
  Pain Interference Score (PIS), % change from Day 0: −52.27%
  Pain Severity Score (PSS), % change from Day 0: −44.44%
[5]; 5 mg/kg SID, Day 7, median
  Pain Interference Score (PIS), % change from Day 0: −26.92%
  Pain Severity Score (PSS), % change from Day 0: −22.22%
[5]; 5 mg/kg SID, Day 14, median
  Pain Interference Score (PIS), % change from Day 0: −40.00%
  Pain Severity Score (PSS), % change from Day 0: −30.00%
[5]; 5 mg/kg SID, Day 21, median
  Pain Interference Score (PIS), % change from Day 0: −53.85%
  Pain Severity Score (PSS), % change from Day 0: −44.44%
[5]; 5 mg/kg SID, Day 28, median
  Pain Interference Score (PIS), % change from Day 0: −55.27%
  Pain Severity Score (PSS), % change from Day 0: −48.53%
[5]; extrapolated from human PK/PD, protein binding and receptor affinity, confirmed in the field study
  preliminary estimated mean effective canine dose: 2 mg/kg SID
[6]
  effect on chronic inflammatory pain response: reverses complete Freund's adjuvant-induced chronic inflammatory pain response
[7]
  ED50, reduction of thermal hyperalgesia: 12.8 mg/kg
[8]; 30 mg/kg
  safety: considered safe for at least a 14-day treatment period
[8]; 30 mg/kg once daily
  lameness scores: lower lameness scores in the grapiprant treated group on Day 2 compared to the negative and positive control groups
  pain scores: statistically significant lower pain scores on Days 2 and 6 compared to baseline
  serum total protein, albumin, and globulin: decreases in mean total protein, albumin, and globulin
[8]; 30 mg/kg over 14 days
  amelioration of lameness and pain: effective at day 2 in ameliorating lameness and pain
[9]; both sexes, serum, 2.5 mg/animal, single dose 2.5 mg (0.5 mg/kg), mean of all animals
  AUC(0-t): 4190 ng·h/mL
[9]; both sexes, serum, 2.5 mg/animal, single dose 2.5 mg (0.5 mg/kg), mean of all animals, read-out: Cmax
  Cmax: 1060 ng/mL
[9]; both sexes, serum, 5 mg/animal, single dose 5 mg (1 mg/kg), mean of all animals, read-out: Tmax
  Tmax: 1.13 h
[9]; both sexes, serum, 10 mg/animal, single dose 10 mg (2 mg/kg), mean of all animals
  AUC(0-t): 21200 ng·h/mL
[9]; both sexes, serum, 10 mg/animal, single dose 10 mg (2 mg/kg), mean of all animals, read-out: Cmax
  Cmax: 4430 ng/mL
[9]; both sexes, serum, 0.5 to 2 mg/kg, read-out: Mean Tmax values among groups
  Tmax: 1.13 to 1.5 h
[9]; both sexes, serum, single dose 2.5 mg (0.5 mg/kg), mean of all animals
  half-life: 1.58 h
[9]; both sexes, serum, single dose 5 mg (1 mg/kg), mean of all animals
  half-life: 1.13 h
[9]; both sexes, serum, single dose 10 mg (2 mg/kg), mean of all animals
  half-life: 3.44 h
[9]; single dose 2.5 mg (0.5 mg/kg), mean of all animals
  Cmax/Dose: 2120 kg·ng/mL/mg
[9]; [11]
  Cmax: 2690 ng/mL
  Cmax/Dose: 2500 kg·ng/mL/mg
[9]; single dose 10 mg (2 mg/kg), mean of all animals
  Cmax/Dose: 2150 kg·ng/mL/mg
[9]; [12]
  increase in AUClast: 5.06 fold
  increase in Cmax: 4.18 fold
[10]; 6 mg/kg, Week 39
  decrease in mean albumin/globulin (A/G) ratio: −16%
[10]; 50 mg/kg
  histopathological finding: mild regeneration of the mucosal epithelium of the ileum in one male
[10]; 50 mg/kg, Weeks 26 and 39
  decrease in mean serum albumin vs. control value: up to −14%
[10]; 1, 6, and 50 mg/kg/day dosing regimen
  accumulation: no accumulation of grapiprant was observed
[10]; Beagle dogs, oral once daily, nine months
  level with no observed adverse effects: 6 mg/kg
[10]; dose-related trend, 1-50 mg/kg
  individual decrease in albumin vs. pre-study: up to −41%
  individual decrease in calcium: up to −18%
  individual decrease in total protein: up to −30%
